Source: patent US4180658A, “7[-2-Alkoxyamino(acetamido)]cephalosporin derivatives” (Bristol-Myers Company, priority 1978, dated 1979)
Converted amounts (≈) assume the structure as drawn. Like-named read-outs stand apart in the source and are kept apart here.

Legend:
Mouse Blood Levels = type: in vivo; settings: im, 40 mg/kg, IM 40 mgm./kg., phosphate buffer; for concentration at 0.25 h: 0.25 hours after administration; for concentration at 0.5 h: 0.5 hours after administration; for concentration at 1 h: 1 hour after administration; for concentration at 1.5 h: 1.5 hours after administration
Procedure: (§1) Biological testing was performed according to the procedures described by F. Leitner et al., Antimicrobial Agents and Chemotherapy 10(3), 426-435 (September, 1976).
*Each group consisted of 6 animals and one blood sample was taken from
(§2) Compounds prepared in phosphate buffer and dosed IM at 40 mgm./kg.
Assay Organism: B. subtilis at pH 6.0

[1] = Solubility (dosing preparation in phosphate buffer); type: physicochemical; settings: compounds prepared in phosphate buffer for dosing
Text: as §2

Pr. vulgaris = test: Antibiotic Activity in Nutrient Broth (MIC); type: cell-based; settings: Proteus vulgaris, Table 1, 10^-4 dilution
Procedure: as §1
(§3) Antibiotic Activity in Nutrient Broth
(§4) **Dilution of overnight broth culture.

K. pneumoniae = test: Antibiotic Activity in Nutrient Broth (MIC); type: cell-based; settings: 10^-4 dilution
Procedure: as §1, §3, §4

Str. faecalis = test: Antibiotic Activity in Nutrient Broth (MIC); type: cell-based; settings: Enterococcus faecalis, Table 1, 10^-4 dilution
Procedure: as §1, §3, §4

Sal. enteritidis = test: Antibiotic Activity in Nutrient Broth (MIC); type: cell-based; settings: Salmonella enterica, Table 1, 10^-4 dilution
Procedure: as §1, §3, §4

S. aureus BX1633 = test: Antibiotic Activity in Nutrient Broth (MIC); type: cell-based; settings: Staphylococcus aureus
Procedure: as §1, §3, §4

S. aureus Smith = test: Antibiotic Activity in Nutrient Broth (MIC); type: cell-based; settings: Staphylococcus aureus, 10^-4 dilution
Procedure: as §1, §3, §4

S. aureus Meth-Res = test: Antibiotic Activity in Nutrient Broth (MIC); type: cell-based; settings: Staphylococcus aureus, 10^-3 dilution
Procedure: as §1, §3, §4

Ser. marcescens = test: Antibiotic Activity in Nutrient Broth (MIC); type: cell-based
Procedure: as §1, §3, §4

Ps. aeruginosa = test: Antibiotic Activity in Nutrient Broth (MIC); type: cell-based; settings: 10^-4 dilution
Procedure: as §1, §3, §4

Ent. cloacae = test: Antibiotic Activity in Nutrient Broth (MIC); type: cell-based
Procedure: as §1, §3, §4

E. coli Juhl = test: Antibiotic Activity in Nutrient Broth (MIC); type: cell-based; settings: Escherichia coli, 10^-4 dilution
Procedure: as §1, §3, §4

Ps. aeruginosa carb. = test: Antibiotic Activity in Nutrient Broth (MIC); type: cell-based; settings: Pseudomonas aeruginosa, Table 1, 10^-4 dilution
Procedure: as §1, §3, §4

Pr. mirabilis = test: Antibiotic Activity in Nutrient Broth (MIC); type: cell-based
Procedure: as §1, §3, §4

Pr. morganii = test: Antibiotic Activity in Nutrient Broth (MIC); type: cell-based; settings: Morganella morganii, 10^-4 dilution
Procedure: as §1, §3, §4

Pr. rettgeri = test: Antibiotic Activity in Nutrient Broth (MIC); type: cell-based; settings: Providencia rettgeri, Table 1, 10^-4 dilution
Procedure: as §1, §3, §4

Str. pyogenes = test: Antibiotic Activity in Nutrient Broth (MIC); type: cell-based; settings: Streptococcus pyogenes, 10^-3 dilution, 45% AAB + 5% serum + 50% broth
Procedure: as §1, §3
(§5) *45% AAB + 5% serum + 50% broth listed above.
as §4

S. pneumoniae = test: Antibiotic Activity in Nutrient Broth (MIC); type: cell-based; settings: Streptococcus pneumoniae, 10^-3 dilution of overnight broth culture, 45% AAB + 5% serum + 50% broth
Procedure: as §1, §3, §5, §4

Enterobacter species = test: Secondary in vitro Screening (MIC); type: cell-based; settings: Table 2
Procedure: as §1

Klebsiella pneumoniae = test: Secondary in vitro Screening (MIC); type: cell-based; settings: Table 2, each line another isolate
Procedure: as §1

Staphylococcus aureus = test: Secondary in vitro Screening (MIC); type: cell-based; settings: Table 2, each line another isolate
Procedure: as §1

Pseudomonas aeruginosa = test: Secondary in vitro Screening (MIC); type: cell-based; settings: Table 2, each line another isolate
Procedure: as §1

S. aureus = test: Antibiotic Activity in Nutrient Broth + 50% serum (MIC); type: cell-based; settings: Staphylococcus aureus, Table 1, 10^-4 dilution
Procedure: as §1, §3, §4

Haemophilus influenzae = test: Secondary in vitro Screening (MIC); type: cell-based; settings: Table 3, each line another isolate
Procedure: as §1

[2] = first pair of lines (Example 1B susp.)
[3] = second pair of lines (Example 1B sol.)
[4] = Klebsiella pneumoniae, Table 1, first pair of columns, read-out: MIC
[5] = BX1633, Table 1, 10^-2 dilution
[6] = BX1633, Table 1, 10^-3 dilution
[7] = BX1633, Table 1, second pair of columns, 10^-2 dilution
[8] = Table 1, second pair of columns
[9] = Serratia marcescens, Table 1, 10^-4 dilution, read-out: MIC
[10] = Table 1, second pair of columns, 10^-4 dilution
[11] = Pseudomonas aeruginosa, Table 1, first pair of columns, read-out: MIC
[12] = Enterobacter cloacae, Table 1, 10^-4 dilution, read-out: MIC
[13] = Proteus mirabilis, Table 1, 10^-4 dilution, read-out: MIC

CO/N=C(\C(=O)N[C@@H]1C(=O)N2C(C(=O)O)=C(COC(N)=O)CS[C@H]12)c1ccco1 [Cefuroxime, sodium 6R,7R3-carbamoyloxymethyl-7-(2Z)-2-methoxyimino(fur-2-yl)acetamidoceph-3-m-4-carboxylate, reference compound]
concentration at 0.25 h (Mouse Blood Levels; [2]): 34500 ng/mL | concentration at 0.25 h (Mouse Blood Levels; [3]): 25600 ng/mL | concentration at 0.5 h (Mouse Blood Levels; [2]): 26300 ng/mL | concentration at 0.5 h (Mouse Blood Levels; [3]): 20600 ng/mL | concentration at 1 h (Mouse Blood Levels; [2]): 7600 ng/mL | concentration at 1 h (Mouse Blood Levels; [3]): 6000 ng/mL | concentration at 1.5 h (Mouse Blood Levels; [2]): 3100 ng/mL | concentration at 1.5 h (Mouse Blood Levels; [3]): 2100 ng/mL | Solubility [1]: sol. | MIC (Pr. vulgaris): 1 µg/mL | MIC (K. pneumoniae; [4]): 2 µg/mL | MIC (Str. faecalis): > 125 µg/mL | MIC (Sal. enteritidis): 0.5 µg/mL | MIC (S. aureus BX1633; [5]): 0.5 µg/mL | MIC (S. aureus BX1633; [6]): 0.5 µg/mL | MIC (S. aureus BX1633; [7]): 2 µg/mL | MIC (S. aureus Smith; Table 1, first pair of columns): 0.13 µg/mL | MIC (S. aureus Smith; [8]): 0.5 µg/mL | MIC (S. aureus Meth-Res; Table 1, first pair of columns): 2 µg/mL | MIC (S. aureus Meth-Res; [8]): > 125 µg/mL | MIC (Ser. marcescens; [9]): > 125 µg/mL | MIC (Ser. marcescens; [10]): > 125 µg/mL | MIC (Ps. aeruginosa; [11]): > 125 µg/mL | MIC (Ent. cloacae; [12]): > 125 µg/mL | MIC (E. coli Juhl; Table 1, first pair of columns): 4 µg/mL | MIC (E. coli Juhl; [8]): 8 µg/mL | MIC (Ps. aeruginosa carb.): > 1000 µg/mL | MIC (Pr. mirabilis; [13]): 0.5 µg/mL | MIC (Pr. mirabilis; [10]): 0.5 µg/mL | MIC (Pr. morganii; Table 1, first pair of columns): 32 µg/mL | MIC (Pr. morganii; [8]): 63 µg/mL | MIC (Pr. rettgeri): 16 µg/mL | MIC (Str. pyogenes; Table 1, first pair of columns): 0.004 µg/mL | MIC (Str. pyogenes; [8]): 0.004 µg/mL | MIC (S. pneumoniae; Table 1, first pair of columns): 0.004 µg/mL | MIC (S. pneumoniae; [8]): 0.004 µg/mL | MIC (Enterobacter species): 2 µg/mL | MIC (Klebsiella pneumoniae): 2 µg/mL | MIC (Staphylococcus aureus): 0.5 µg/mL | MIC (Pseudomonas aeruginosa): 125 µg/mL

CO/N=C(\C(=O)N[C@@H]1C(=O)N2C(C(=O)O)=C(CSc3nnnn3CCN)CS[C@H]12)c1ccco1 [Example 1B, 7-(α-Methoxyiminofurylacetamido)-3-(1-[2'-aminoethyl]-tetrazol-5-ylthiomethyl)-3-cephem-4-carboxylic Acid]
concentration at 0.25 h (Mouse Blood Levels; [2]): 35000 ng/mL | concentration at 0.25 h (Mouse Blood Levels; [3]): 33600 ng/mL | concentration at 0.5 h (Mouse Blood Levels; [2]): 17900 ng/mL | concentration at 0.5 h (Mouse Blood Levels; [3]): 17400 ng/mL | concentration at 1 h (Mouse Blood Levels; [2]): 5400 ng/mL | concentration at 1 h (Mouse Blood Levels; [3]): 3900 ng/mL | concentration at 1.5 h (Mouse Blood Levels; [2]): < 2500 ng/mL | concentration at 1.5 h (Mouse Blood Levels; [3]): < 2600 ng/mL | Solubility [1]: susp. and sol. | MIC (Pr. vulgaris): 0.5 µg/mL (≈ 0.983 µM) | MIC (K. pneumoniae; [4]): 1 µg/mL (≈ 1.97 µM) | MIC (K. pneumoniae; Klebsiella pneumoniae, Table 1, second pair of columns, read-out: MIC): 16 µg/mL (≈ 31.5 µM) | MIC (K. pneumoniae; Table 1, first pair of columns): 2 µg/mL (≈ 3.93 µM) | MIC (K. pneumoniae; [8]): 32 µg/mL (≈ 62.9 µM) | MIC (Str. faecalis): 63 µg/mL (≈ 124 µM) | MIC (Sal. enteritidis): ≤ 0.25 µg/mL | MIC (S. aureus BX1633; [5]): 1 µg/mL (≈ 1.97 µM) | MIC (S. aureus BX1633; [6]): 0.5 µg/mL (≈ 0.983 µM) | MIC (S. aureus BX1633; [7]): 0.5 µg/mL (≈ 0.983 µM) | MIC (S. aureus Smith; Table 1, first pair of columns): 0.5 µg/mL (≈ 0.983 µM) | MIC (S. aureus Smith; [8]): 0.5 µg/mL (≈ 0.983 µM) | MIC (S. aureus Meth-Res; Table 1, first pair of columns): 2 µg/mL (≈ 3.93 µM) | MIC (S. aureus Meth-Res; [8]): > 125 µg/mL | MIC (Ser. marcescens; [9]): 8 µg/mL (≈ 15.7 µM) | MIC (Ser. marcescens; [10]): 8 µg/mL (≈ 15.7 µM) | MIC (Ps. aeruginosa; [11]): 125 µg/mL (≈ 246 µM) | MIC (Ps. aeruginosa; Pseudomonas aeruginosa, Table 1, second pair of columns, read-out: MIC): 63 µg/mL (≈ 124 µM) | MIC (Ps. aeruginosa; [8]): 125 µg/mL (≈ 246 µM) | MIC (Ent. cloacae; [12]): 16 µg/mL (≈ 31.5 µM) | MIC (Ent. cloacae; [10]): 8 µg/mL (≈ 15.7 µM) | MIC (E. coli Juhl; Table 1, first pair of columns): 8 µg/mL (≈ 15.7 µM) | MIC (E. coli Juhl; [8]): 2 µg/mL (≈ 3.93 µM) | MIC (Ps. aeruginosa carb.): 250 µg/mL (≈ 492 µM) | MIC (Pr. mirabilis; [13]): 0.5 µg/mL (≈ 0.983 µM) | MIC (Pr. mirabilis; [10]): 0.5 µg/mL (≈ 0.983 µM) | MIC (Pr. morganii; Table 1, first pair of columns): 2 µg/mL (≈ 3.93 µM) | MIC (Pr. morganii; [8]): 1 µg/mL (≈ 1.97 µM) | MIC (Pr. rettgeri): 1 µg/mL (≈ 1.97 µM) | MIC (Str. pyogenes; Table 1, first pair of columns): 0.008 µg/mL | MIC (Str. pyogenes; [8]): 0.004 µg/mL | MIC (S. pneumoniae; Table 1, first pair of columns): 0.008 µg/mL | MIC (S. pneumoniae; [8]): 0.004 µg/mL | MIC (S. aureus): 1 µg/mL | MIC (Enterobacter species): 2 µg/mL (≈ 3.93 µM) | MIC (Klebsiella pneumoniae): 2 µg/mL (≈ 3.93 µM) | MIC (Haemophilus influenzae): 0.5 µg/mL (≈ 0.983 µM) | MIC (Pseudomonas aeruginosa): > 63 µg/mL
